What was measured:
[1] = system: human corneal endothelium cells (HCECs); test: Annexin V-FITC / propidium iodide flow cytometry apoptosis assay; format: cell-based; conditions: 50 μM and 100 μM, 24 hours (FIG. 3)
Protocol: Annexin V staining is a common method for detecting apoptotic cells. The human corneal endothelium cells (HCECs) were assessed for apoptosis using flow cytometry staining with annexin-V conjugated with fluorescein isothiocyanate and propidium iodide (FIG. 3). HCECs were cultured in DMEM/F12 containing 50 μM and 100 μM ferulic acid. Briefly, HCECs were grown to confluence and incubated for 24 hours in 24-well plates using the same conditions as in the previous sets of experiments. After centrifugation and washing in cold PBS, HCECs for annexin V-FITC staining were resuspended in binding buffer (10 mM HEPES, 140 mM sodium chloride, 5 mM potassium chloride, 1 mM magnesium dichloride, 2.5 mM calcium dichloride, pH 7.4) at a concentration of 10^6 cells/ml. Five hundred microliters containing 5×10^5 cells was transferred to a culture tube, and […] of FITC-conjugated annexin V was added. Positive controls were provided for both apoptotic and necrotic (10% ethanol) cell death. For simultaneous scoring of the differential cellular response, aliquots of 10^4 cells each were immediately processed for fluorescence-activated cell sorting (FACS) on a FACS Calibur flow cytometer (Becton-Dickinson). Excitation parameters were set at λEx=488 nm, and fluorescence emission was detected at […]=518 nm for annexin V-FITC.

[2] = system: bovine corneal endothelium cells; test: TUNEL assay of AAPH induced apoptosis; format: cell-based; conditions: ferulic acid 50 μM and 100 μM, AAPH 25 mM (FIG. 4)
Protocol: Terminal deoxynucleotidyl transferase (TdT) end-labeling (TUNEL) method (DeadEnd™ Fluorometric TUNEL System, Promega, Madison, USA) was used for apoptosis analysis according to the manufacturer's instructions (FIG. 4). Briefly, bovine cornea endothelium cells were seeded on LabTek® chamber slides at a density of 1×10^4 cells/well for 24 hours, treated with 50 μM ferulic acid for 3 hours, and then reacted with 25 mM AAPH (2,2′-azobis(2-amidinopropane dihydrochloride) for 6 hours. Slides were immersed in 4% formaldehyde for fixation, cells were permeabilized with Triton® X-100. Then equilibration buffer, nucleotide mix and rTdT enzyme were added in for apoptosis cells labeling. Finally, counterstaining the nucleus with propidium iodide, and observed by fluorescence microscopy. The green fluorescence spots in FIG. 4 represents the apoptotic cells (fluorescein-12-dUTP) with a red background (propidium iodide).

COc1cc(/C=C/C(=O)O)ccc1O [ferulic acid] was tested, and the “cytotoxicity (apoptosis, annexin-V/PI)” value [1] was “no cytotoxic effect” and the “protection against AAPH induced damage (apoptosis, TUNEL)” value [2] was “prevented and/or antagonized AAPH (25 mM) induced damage”.
